≈ marks a conversion by molar mass, not a printed value. Calls of active or inactive are those of the source. The rule behind the calls is not given here.
Assays:
[1] = biological target: RAC-alpha serine/threonine-protein kinase (Homo sapiens, UniProt P31749); experiment: Inhibition of AKT1
[2] = biological target: RAC-beta serine/threonine-protein kinase (Homo sapiens, UniProt P31751); experiment: Inhibition of AKT2
[3] = biological target: RAC-gamma serine/threonine-protein kinase (Homo sapiens, UniProt Q9Y243); experiment: Inhibition of AKT3
[4] = tested on: BT-474; experiment: Cytotoxicity against human BT474 cells; format: functional, cell-based
[5] = tested on: LNCaP; experiment: Cytotoxicity against human LNCAP cells; format: functional, cell-based
[6] = tested on: HFF; experiment: Cytotoxicity against HFF cells; format: cell-based; conditions: Homo sapiens
[7] = biological target: Cytochrome P450 3A4 (Homo sapiens, UniProt P08684); experiment: Inhibition of CYP3A4; format: ADME
[8] = Solubility of the compound; format: physicochemical
[9] = Protein binding in SCID mouse plasma; format: ADME, cell-free; conditions: read-out: PPB (converted)
[10] = tested on: Mus musculus; experiment: Inhibition of GSK3-beta phosphorylation in human BT474 cell xenografted SCID mouse at 50 mg/kg, ip; format: functional; conditions: BT-474, ip, route intraperitoneal
[11] = tested on: Mus musculus; experiment: Inhibition of GSK3-beta phosphorylation in human BT474 cell xenografted SCID mouse at 12.5 mg/kg, ip; format: functional, organism-based; design: dose 12.5 mg/kg; conditions: BT-474
[12] = tested on: Mus musculus; experiment: Inhibition of GSK3-beta phosphorylation in human BT474 cell xenografted SCID mouse at 25 mg/kg, ip; format: functional, organism-based; design: dose 25 mg/kg; conditions: BT-474
[13] = Drug level in tumor of human BT474 cells xenografted in SCID mouse at 50 mg/kg, ip; format: ADME, organism-based, Neoplasm, BT-474; design: dose 50 mg/kg, route intraperitoneal; conditions: in vivo
[14] = biological target: Rho-associated protein kinase 1 (Homo sapiens, UniProt Q13464); experiment: Inhibition of ROCK1
[15] = biological target: Ribosomal protein S6 kinase beta-1 (Homo sapiens, UniProt P23443); experiment: Inhibition of P70S6K
[16] = biological target: Serine/threonine-protein kinase PAK 1 (Homo sapiens, UniProt Q13153); experiment: Inhibition of PAK1
[17] = Inhibition of PKA
[18] = Inhibition of RSK
[19] = biological target: T1, Cytochrome P450 1A2 (Homo sapiens, UniProt P05177); experiment: Inhibition of CYP1A2; format: ADME
T1 sequence (P05177 whole entry): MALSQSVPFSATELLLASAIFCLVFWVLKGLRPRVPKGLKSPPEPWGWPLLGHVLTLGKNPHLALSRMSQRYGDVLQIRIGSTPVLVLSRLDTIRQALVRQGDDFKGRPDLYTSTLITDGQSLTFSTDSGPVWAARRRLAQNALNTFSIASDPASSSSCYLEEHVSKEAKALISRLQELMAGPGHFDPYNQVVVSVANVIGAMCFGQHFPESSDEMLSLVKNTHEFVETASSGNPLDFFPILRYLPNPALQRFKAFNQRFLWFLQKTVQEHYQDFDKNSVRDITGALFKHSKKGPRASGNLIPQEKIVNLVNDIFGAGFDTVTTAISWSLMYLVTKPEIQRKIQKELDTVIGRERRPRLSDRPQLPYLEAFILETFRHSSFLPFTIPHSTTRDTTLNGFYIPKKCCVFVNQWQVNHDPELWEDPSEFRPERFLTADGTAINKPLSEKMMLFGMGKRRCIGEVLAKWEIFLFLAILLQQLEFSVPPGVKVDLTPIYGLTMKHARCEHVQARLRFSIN

[20] = biological target: Cytochrome P450 2C19 (Homo sapiens, UniProt P33261); experiment: Inhibition of CYP2C19; format: ADME
[21] = biological target: Cytochrome P450 2D6 (Homo sapiens, UniProt P10635); experiment: Inhibition of CYP2D6; format: ADME

Sequence of RAC-alpha serine/threonine-protein kinase (P31749 whole entry): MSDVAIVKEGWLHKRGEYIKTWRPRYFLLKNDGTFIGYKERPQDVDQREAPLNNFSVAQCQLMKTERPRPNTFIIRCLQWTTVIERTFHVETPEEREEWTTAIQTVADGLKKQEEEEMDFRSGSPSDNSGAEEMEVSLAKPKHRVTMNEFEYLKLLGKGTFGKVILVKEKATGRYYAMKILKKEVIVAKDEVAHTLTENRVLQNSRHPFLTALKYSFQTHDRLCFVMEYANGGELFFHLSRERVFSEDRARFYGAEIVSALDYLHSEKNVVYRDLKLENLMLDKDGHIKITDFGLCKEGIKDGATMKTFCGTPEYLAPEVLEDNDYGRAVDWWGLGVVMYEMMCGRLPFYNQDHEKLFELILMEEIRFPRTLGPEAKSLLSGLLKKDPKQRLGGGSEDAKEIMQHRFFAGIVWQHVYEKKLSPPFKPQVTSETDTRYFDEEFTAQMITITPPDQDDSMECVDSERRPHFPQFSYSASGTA
Sequence of Cytochrome P450 3A4 (P08684 whole entry): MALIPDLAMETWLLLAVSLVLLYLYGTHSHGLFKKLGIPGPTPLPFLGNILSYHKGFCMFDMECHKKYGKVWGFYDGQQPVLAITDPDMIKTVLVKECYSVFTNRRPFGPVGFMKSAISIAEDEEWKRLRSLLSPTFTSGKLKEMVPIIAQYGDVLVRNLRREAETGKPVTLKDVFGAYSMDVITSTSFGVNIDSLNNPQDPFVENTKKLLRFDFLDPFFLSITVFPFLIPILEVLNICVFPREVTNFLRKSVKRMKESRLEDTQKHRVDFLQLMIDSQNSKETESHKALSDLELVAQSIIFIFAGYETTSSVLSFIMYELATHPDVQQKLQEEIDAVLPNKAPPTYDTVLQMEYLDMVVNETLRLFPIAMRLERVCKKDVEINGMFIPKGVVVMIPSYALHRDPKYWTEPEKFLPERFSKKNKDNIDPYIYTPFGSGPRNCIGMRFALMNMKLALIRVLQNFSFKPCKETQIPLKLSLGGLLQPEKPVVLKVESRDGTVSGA
Sequence of RAC-beta serine/threonine-protein kinase (P31751 whole entry): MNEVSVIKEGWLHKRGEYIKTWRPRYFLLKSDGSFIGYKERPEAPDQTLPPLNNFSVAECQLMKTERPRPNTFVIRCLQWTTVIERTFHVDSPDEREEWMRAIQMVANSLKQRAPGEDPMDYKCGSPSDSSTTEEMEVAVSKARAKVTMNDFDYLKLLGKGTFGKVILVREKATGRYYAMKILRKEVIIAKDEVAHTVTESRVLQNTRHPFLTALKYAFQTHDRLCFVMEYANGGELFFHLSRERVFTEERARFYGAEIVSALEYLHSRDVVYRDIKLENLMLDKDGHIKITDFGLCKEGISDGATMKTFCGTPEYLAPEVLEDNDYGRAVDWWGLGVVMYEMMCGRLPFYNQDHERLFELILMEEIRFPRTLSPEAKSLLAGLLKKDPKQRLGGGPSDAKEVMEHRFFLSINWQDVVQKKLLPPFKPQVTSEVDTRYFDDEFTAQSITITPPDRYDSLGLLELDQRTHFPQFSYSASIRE
Sequence of RAC-gamma serine/threonine-protein kinase (Q9Y243 whole entry): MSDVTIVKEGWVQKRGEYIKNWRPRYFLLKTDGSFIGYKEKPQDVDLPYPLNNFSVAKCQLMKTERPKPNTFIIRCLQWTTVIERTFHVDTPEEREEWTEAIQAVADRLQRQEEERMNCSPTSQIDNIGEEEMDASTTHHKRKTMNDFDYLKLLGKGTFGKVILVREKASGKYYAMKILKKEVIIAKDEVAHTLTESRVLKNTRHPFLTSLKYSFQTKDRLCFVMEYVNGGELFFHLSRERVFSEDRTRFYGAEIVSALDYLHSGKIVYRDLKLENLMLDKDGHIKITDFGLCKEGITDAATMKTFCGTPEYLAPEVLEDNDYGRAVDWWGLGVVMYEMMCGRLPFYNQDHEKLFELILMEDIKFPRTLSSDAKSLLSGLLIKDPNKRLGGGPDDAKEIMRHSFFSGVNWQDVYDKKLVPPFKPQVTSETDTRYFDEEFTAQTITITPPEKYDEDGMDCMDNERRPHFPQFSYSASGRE
Sequence of Ribosomal protein S6 kinase beta-1 (P23443 whole entry): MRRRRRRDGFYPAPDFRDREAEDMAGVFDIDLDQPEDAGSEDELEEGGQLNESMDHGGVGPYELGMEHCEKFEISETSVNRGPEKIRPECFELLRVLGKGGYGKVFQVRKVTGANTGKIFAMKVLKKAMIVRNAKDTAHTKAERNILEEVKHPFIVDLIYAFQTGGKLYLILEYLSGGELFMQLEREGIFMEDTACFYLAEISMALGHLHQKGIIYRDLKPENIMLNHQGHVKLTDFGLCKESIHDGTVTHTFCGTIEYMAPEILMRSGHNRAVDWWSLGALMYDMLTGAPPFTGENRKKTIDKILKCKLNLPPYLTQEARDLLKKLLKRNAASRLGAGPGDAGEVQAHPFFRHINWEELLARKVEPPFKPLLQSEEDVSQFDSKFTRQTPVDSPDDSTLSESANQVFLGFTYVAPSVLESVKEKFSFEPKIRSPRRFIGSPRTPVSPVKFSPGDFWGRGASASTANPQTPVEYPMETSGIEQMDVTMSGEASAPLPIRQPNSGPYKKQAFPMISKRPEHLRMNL
Sequence of Rho-associated protein kinase 1 (Q13464 whole entry): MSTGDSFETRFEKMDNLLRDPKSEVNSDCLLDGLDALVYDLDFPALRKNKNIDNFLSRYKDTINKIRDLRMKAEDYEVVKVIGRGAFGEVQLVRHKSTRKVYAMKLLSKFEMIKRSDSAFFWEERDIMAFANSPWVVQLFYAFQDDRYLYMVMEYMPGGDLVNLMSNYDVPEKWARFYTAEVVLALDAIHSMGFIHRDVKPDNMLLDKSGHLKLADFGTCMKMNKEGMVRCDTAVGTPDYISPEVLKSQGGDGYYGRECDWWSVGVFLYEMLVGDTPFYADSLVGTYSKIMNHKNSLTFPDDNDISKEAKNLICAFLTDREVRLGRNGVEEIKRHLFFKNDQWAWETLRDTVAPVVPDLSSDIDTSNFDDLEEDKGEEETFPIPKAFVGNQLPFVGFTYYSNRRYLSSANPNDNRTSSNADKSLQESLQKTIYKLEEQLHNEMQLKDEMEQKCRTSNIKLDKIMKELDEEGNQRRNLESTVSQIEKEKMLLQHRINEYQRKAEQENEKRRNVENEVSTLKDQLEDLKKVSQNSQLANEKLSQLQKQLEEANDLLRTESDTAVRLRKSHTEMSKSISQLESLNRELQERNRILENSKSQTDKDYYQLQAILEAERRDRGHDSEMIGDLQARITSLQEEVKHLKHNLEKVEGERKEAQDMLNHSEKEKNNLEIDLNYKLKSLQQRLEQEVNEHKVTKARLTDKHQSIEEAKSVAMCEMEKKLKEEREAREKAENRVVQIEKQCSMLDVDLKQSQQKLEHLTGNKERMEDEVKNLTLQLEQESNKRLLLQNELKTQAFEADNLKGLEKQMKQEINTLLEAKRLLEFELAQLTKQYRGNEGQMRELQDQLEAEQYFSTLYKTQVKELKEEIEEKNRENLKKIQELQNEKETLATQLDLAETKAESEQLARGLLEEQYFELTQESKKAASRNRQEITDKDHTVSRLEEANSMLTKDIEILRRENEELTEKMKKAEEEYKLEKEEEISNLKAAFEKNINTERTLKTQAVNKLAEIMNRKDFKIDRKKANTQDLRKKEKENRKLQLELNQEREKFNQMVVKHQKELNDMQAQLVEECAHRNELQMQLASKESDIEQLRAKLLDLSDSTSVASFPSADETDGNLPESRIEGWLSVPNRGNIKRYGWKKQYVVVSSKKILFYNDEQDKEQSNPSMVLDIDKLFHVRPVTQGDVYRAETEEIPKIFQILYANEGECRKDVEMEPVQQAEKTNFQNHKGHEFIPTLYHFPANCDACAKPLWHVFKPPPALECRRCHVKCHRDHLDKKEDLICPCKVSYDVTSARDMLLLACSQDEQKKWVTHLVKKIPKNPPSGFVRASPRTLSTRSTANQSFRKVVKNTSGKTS
Sequence of Cytochrome P450 2C19 (P33261 whole entry): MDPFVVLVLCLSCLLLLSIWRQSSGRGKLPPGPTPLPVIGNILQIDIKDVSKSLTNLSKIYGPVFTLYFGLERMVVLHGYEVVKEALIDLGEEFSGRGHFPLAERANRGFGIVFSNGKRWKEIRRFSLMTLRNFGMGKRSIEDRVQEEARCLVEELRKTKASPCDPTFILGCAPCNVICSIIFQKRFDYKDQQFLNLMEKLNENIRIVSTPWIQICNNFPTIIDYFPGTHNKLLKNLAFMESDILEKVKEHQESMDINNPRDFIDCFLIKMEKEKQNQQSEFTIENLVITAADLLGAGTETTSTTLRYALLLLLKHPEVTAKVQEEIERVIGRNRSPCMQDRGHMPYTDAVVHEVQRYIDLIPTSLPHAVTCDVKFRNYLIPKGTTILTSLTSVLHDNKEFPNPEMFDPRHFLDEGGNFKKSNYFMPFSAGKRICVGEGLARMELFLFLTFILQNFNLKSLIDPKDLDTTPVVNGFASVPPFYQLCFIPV
Sequence of Serine/threonine-protein kinase PAK 1 (Q13153 whole entry): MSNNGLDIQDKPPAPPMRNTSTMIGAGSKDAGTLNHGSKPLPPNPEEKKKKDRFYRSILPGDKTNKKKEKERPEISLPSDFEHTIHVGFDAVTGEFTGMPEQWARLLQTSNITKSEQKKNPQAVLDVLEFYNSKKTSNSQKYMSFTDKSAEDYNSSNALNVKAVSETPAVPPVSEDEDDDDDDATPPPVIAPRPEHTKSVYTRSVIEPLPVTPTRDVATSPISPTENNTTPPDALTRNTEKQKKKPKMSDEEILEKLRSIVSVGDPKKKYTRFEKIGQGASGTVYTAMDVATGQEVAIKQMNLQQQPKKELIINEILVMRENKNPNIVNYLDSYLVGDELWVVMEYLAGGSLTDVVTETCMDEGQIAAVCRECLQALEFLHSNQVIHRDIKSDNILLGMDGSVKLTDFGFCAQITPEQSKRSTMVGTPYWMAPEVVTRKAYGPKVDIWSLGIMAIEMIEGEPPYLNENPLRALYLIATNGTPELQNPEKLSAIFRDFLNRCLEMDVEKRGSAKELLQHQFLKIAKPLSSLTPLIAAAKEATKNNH

Row | SMILES | IC50 [1] | IC50 [2] | IC50 [3] | IC50 [4] | IC50 [5] | IC50 [6] | IC50 [7] | solubility [8] | fraction unbound [9] | other results
1 | Cc1n[nH]c2cnc(-c3cc(OC[C@@H](N)Cc4c[nH]c5ccccc45)cnc3-c3ccoc3)nc12 | 1 nM | 31 nM | 15 nM | 640 nM | 540 nM | 30000 nM | 1300 nM | 205 µM (≈ 95.4 µg/mL) | 0.155 | –
2 | Cc1n[nH]c2ncc(-c3cc(OC[C@@H](N)Cc4c[nH]c5ccccc45)cnc3-c3ccoc3)nc12 | 2 nM | 39 nM | 10 nM | 370 nM | 96 nM | 14300 nM | 400 nM | 200 µM (≈ 93.1 µg/mL) | 0.091 | inhibition in vivo at 50 mg/kg [10]: 80%; Activity [11]: inactive; Activity [12]: inactive; Drug uptake [13]: 3798 ng/mL
3 | Cc1n[nH]c2cnc(-c3cc(OC[C@@H](N)Cc4c[nH]c5ccccc45)cnc3-c3ccoc3)cc12 | 1 nM | 6 nM | 1 nM | 750 nM | 230 nM | 6500 nM | 16 nM | – | 0.057 | –
4 | Cc1[nH]nc2ccc(-c3cc(OC[C@@H](N)Cc4c[nH]c5ccccc45)cnc3-c3ccoc3)cc12 | 1 nM | 12 nM | 1 nM | 340 nM | 190 nM | 5500 nM | 50 nM | 52 µM (≈ 24.1 µg/mL) | 0.041 | IC50 [14]: 1580 nM; IC50 [15]: 7 nM; IC50 [16]: 31 nM; IC50 [17]: 1 nM; IC50 [18]: 25 nM; IC50 [19]: 50000 nM; IC50 [20]: 2000 nM; IC50 [21]: 5000 nM
5 | Cc1n[nH]c2ncc(-c3cc(OC[C@@H](N)Cc4c[nH]c5ccccc45)cnc3-c3ccoc3)cc12 | 1 nM | – | – | 300 nM | 85 nM | 6600 nM | 200 nM | 108 µM (≈ 50.2 µg/mL) | 0.047 | –
6 | Cc1n[nH]c2ccc(-c3cc(OC[C@@H](N)Cc4c[nH]c5ccccc45)cnc3-c3ccoc3)nc12 | 12 nM | – | – | 2100 nM | 830 nM | 30000 nM | 100 nM | 225 µM (≈ 105 µg/mL) | 0.069 | –
